Results published in ChEMBL document CHEMBL1140020, “Synthesis and biological evaluation of 4'-(6,7-disubstituted-2,4-dihydro-indeno[1,2-c]pyrazol-3-yl)-biphenyl-4-ol as potent Chk1 inhibitors” (Bioorg Med Chem Lett, 2007).
Calls of active or inactive are those of the source. The calls are words filed in the database; no cut-off is given here.

What was measured:
[1] = biological target: T1, Serine/threonine-protein kinase Chk1 (Homo sapiens, UniProt O14757); assay: Inhibition of Chk1
T1 sequence (O14757 whole entry): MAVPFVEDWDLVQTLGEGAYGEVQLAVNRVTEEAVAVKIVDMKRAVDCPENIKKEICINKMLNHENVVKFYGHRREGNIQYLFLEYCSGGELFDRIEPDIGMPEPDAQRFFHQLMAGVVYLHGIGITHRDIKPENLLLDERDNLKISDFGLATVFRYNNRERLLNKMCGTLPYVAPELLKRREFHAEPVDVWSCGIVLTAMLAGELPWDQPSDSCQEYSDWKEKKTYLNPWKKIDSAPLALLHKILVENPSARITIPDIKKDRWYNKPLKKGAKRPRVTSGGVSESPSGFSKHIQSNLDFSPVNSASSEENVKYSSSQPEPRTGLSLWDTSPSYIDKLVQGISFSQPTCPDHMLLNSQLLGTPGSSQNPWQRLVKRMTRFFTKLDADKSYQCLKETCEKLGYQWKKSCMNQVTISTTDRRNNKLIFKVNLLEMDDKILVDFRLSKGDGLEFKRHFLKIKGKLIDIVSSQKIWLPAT

HeLa = assay: Cytotoxicity against HeLa cells by MTS assay; assay type: cell-based; settings: Homo sapiens
[2] = Cell cycle arrest in H1299 cells by accumulation at G2/M phase by FACS analysis; assay type: functional, cell-based; settings: Homo sapiens, NCI-H1299
NCI-H1299 = assay: Inhibition of doxorubicin-induced cell cycle arrest in H1299 cells by accumulation at G2/M phase by FACS analysis; assay type: functional, cell-based; settings: Homo sapiens
SW-620 = assay: Inhibition of camptothecin-induced cell cycle arrest in SW620 cells by accumulation at S phase by FACS analysis; assay type: functional, cell-based; settings: Homo sapiens

SMILES | IC50 [1] [nM] | EC50 (HeLa) [nM] | other results
COc1cc2c(cc1OCCC1CCCN1C)-c1[nH]nc(-c3ccc(-c4ccc(O)cc4)cc3)c1C2 (stereo unspecified) | 0.8 |  | 
CCN(CC)CC(CN(CC)CC)Oc1cc2c(cc1OC)Cc1c(-c3ccc(-c4ccc(O)cc4)cc3)n[nH]c1-2 | 2 |  | 
COc1cc2c(cc1OCC(C)CN(C)C)-c1n[nH]c(-c3ccc(-c4ccc(O)cc4)cc3)c1C2 (stereo unspecified) | 0.6 | 1600 | 
COc1cc2c(cc1OC(CO)CO)Cc1c-2n[nH]c1-c1ccc(-c2ccc(O)cc2)cc1 | < 0.1 |  | 
COc1cc2c(cc1OC(=O)NCCN1CCOCC1)-c1[nH]nc(-c3ccc(-c4ccc(O)cc4)cc3)c1C2 | 74 |  | 
COc1cc2c(cc1OC(F)(F)F)-c1[nH]nc(-c3ccc(-c4ccc(O)cc4)cc3)c1C2 | 290 |  | 
COc1cc2c(cc1OC)-c1n[nH]c(-c3ccc(-c4ccc(O)cc4)cc3)c1C2 |  | > 59300 | EC50 [2]: > 50000 nM; EC50 (NCI-H1299): 200 nM; Activity (SW-620): Active
COc1cc2c(cc1OCCN1CCCC1)-c1[nH]nc(-c3ccc(-c4ccc(O)cc4)cc3)c1C2 | 2 |  | 
COc1cc2c(cc1OCCN(C)C)-c1[nH]nc(-c3ccc(-c4ccc(O)cc4)cc3)c1C2 | 0.8 |  | 
COc1cc2c(cc1OCC[C@@H]1CCCN1)Cc1c(-c3ccc(-c4ccc(O)cc4)cc3)n[nH]c1-2 | 2 |  | 
COc1cc2c(cc1OC(=O)NCCN(C)C)-c1[nH]nc(-c3ccc(-c4ccc(O)cc4)cc3)c1C2 | 40 |  | 
COc1cc2c(cc1OCCCN1CCN(c3ccccc3OC)CC1)Cc1c(-c3ccc(-c4ccc(O)cc4)cc3)n[nH]c1-2 | 25 |  | 
COc1cc2c(cc1OC(C)CN(C)C)-c1n[nH]c(-c3ccc(-c4ccc(O)cc4)cc3)c1C2 (stereo unspecified) | 2 |  | 
COc1cc2c(cc1OC[C@H]1CC=CCC1)Cc1c-2n[nH]c1-c1ccc(-c2ccc(O)cc2)cc1 | 0.7 |  | 
COc1cc2c(cc1OCCN1CCCC1)Cc1c(-c3ccc(-c4ccc(O)cc4)cc3)n[nH]c1-2 | 0.8 |  | 
COc1cc2c(cc1OCCN1CCOCC1)-c1n[nH]c(-c3ccc(-c4ccc(O)cc4)cc3)c1C2 | 5 |  | 
COc1cc2c(cc1OCCCN1CCN(c3cccc(Cl)c3)CC1)-c1n[nH]c(-c3ccc(-c4ccc(O)cc4)cc3)c1C2 | 10 |  | 

SMILES | IC50 [1] [nM] | EC50 (HeLa) [nM] | other results
COc1cc2c(cc1OC(=O)NCCN1CCCC1)-c1[nH]nc(-c3ccc(-c4ccc(O)cc4)cc3)c1C2 | 21 |  | 
COc1cc2c(cc1OCCN1CCOCC1)Cc1c(-c3ccc(-c4ccc(O)cc4)cc3)n[nH]c1-2 | 2 |  | 
COc1cc2c(cc1OCCN1CCCCC1)Cc1c-2n[nH]c1-c1ccc(-c2ccc(O)cc2)cc1 | 1 |  | 
COc1cc2c(cc1OC(C)CN(C)C)Cc1c-2n[nH]c1-c1ccc(-c2ccc(O)cc2)cc1 (stereo unspecified) | 2 |  | 
COc1cc2c(cc1OCCCN1CCOCC1)Cc1c-2n[nH]c1-c1ccc(-c2ccc(O)cc2)cc1 | 6 | 4300 | 
COc1cc2c(cc1OC1CCOC1)Cc1c-2n[nH]c1-c1ccc(-c2ccc(O)cc2)cc1 (stereo unspecified) | 0.4 | 49000 | 
CCN1CCCC(Oc2cc3c(cc2OC)Cc2c-3n[nH]c2-c2ccc(-c3ccc(O)cc3)cc2)C1 (stereo unspecified) | 0.6 |  | 
COc1cc2c(cc1OCc1ccccn1)Cc1c(-c3ccc(-c4ccc(O)cc4)cc3)n[nH]c1-2 | 20 |  | 
COc1cc2c(cc1O)-c1[nH]nc(-c3ccc(-c4ccc(O)cc4)cc3)c1C2 | 5 |  | 
COc1cc2c(cc1CCOCCCc1cccc(C)n1)Cc1c-2n[nH]c1-c1ccc(-c2ccc(O)cc2)cc1 | 62 | 4100 | EC50 [2]: > 10000 nM; EC50 (NCI-H1299): 400 nM
COc1cc2c(cc1OCCCN1CCCCC1)Cc1c-2n[nH]c1-c1ccc(-c2ccc(O)cc2)cc1 | 4 | 2300 | EC50 [2]: > 10000 nM; EC50 (NCI-H1299): 400 nM
COc1cc2c(cc1OC(=O)NCc1ccccn1)-c1[nH]nc(-c3ccc(-c4ccc(O)cc4)cc3)c1C2 | 48 |  | 
COc1cc2c(cc1OCCCN1CCN(c3cccc(Cl)c3)CC1)Cc1c-2n[nH]c1-c1ccc(-c2ccc(O)cc2)cc1 | 8 |  | 
COc1cc2c(cc1OCC1CCOC1)Cc1c-2n[nH]c1-c1ccc(-c2ccc(O)cc2)cc1 (stereo unspecified) | 0.8 |  | 
COc1cc2c(cc1O)Cc1c(-c3ccc(-c4ccc(O)cc4)cc3)n[nH]c1-2 | 1 |  | 
COc1cc2c(cc1OCCCN1CCN(C)CC1)-c1n[nH]c(-c3ccc(-c4ccc(O)cc4)cc3)c1C2 | 0.2 |  | 
COc1cc2c(cc1OC1CCOCC1)Cc1c(-c3ccc(-c4ccc(O)cc4)cc3)n[nH]c1-2 | 0.2 |  | 

Second part, led by results:

IC50 [1] [nM] | SMILES | EC50 (HeLa) [nM] | other results
5 | COc1cc2c(cc1OCCn1ccnc1)Cc1c-2n[nH]c1-c1ccc(-c2ccc(O)cc2)cc1 |  | 
13 | COc1cc2c(cc1OCCc1cccnc1)Cc1c(-c3ccc(-c4ccc(O)cc4)cc3)n[nH]c1-2 |  | 
30 | COc1cc2c(cc1OCCc1ccccn1)Cc1c-2n[nH]c1-c1ccc(-c2ccc(O)cc2)cc1 | 3400 | EC50 [2]: > 10000 nM; EC50 (NCI-H1299): 600 nM
0.7 | COc1cc2c(cc1OCCCN(C)C)Cc1c-2n[nH]c1-c1ccc(-c2ccc(O)cc2)cc1 | 800 | 
23 | COc1cc2c(cc1OCc1cccnc1)-c1n[nH]c(-c3ccc(-c4ccc(O)cc4)cc3)c1C2 | 35200 | EC50 [2]: > 50000 nM; EC50 (NCI-H1299): 300 nM
5 | COc1cc2c(cc1OCCc1ccncc1)Cc1c-2n[nH]c1-c1ccc(-c2ccc(O)cc2)cc1 |  | 
3 | COc1cc2c(cc1OCCn1ccnc1)-c1n[nH]c(-c3ccc(-c4ccc(O)cc4)cc3)c1C2 | 1900 | 
8 | COc1cc2c(cc1OCc1ccncc1)Cc1c-2n[nH]c1-c1ccc(-c2ccc(O)cc2)cc1 | 3200 | 
2 | COc1cc2c(cc1OCCN(C)C)Cc1c-2n[nH]c1-c1ccc(-c2ccc(O)cc2)cc1 |  | 
24 | COc1cc2c(cc1OCc1ccccn1)-c1n[nH]c(-c3ccc(-c4ccc(O)cc4)cc3)c1C2 | > 59300 | EC50 [2]: > 50000 nM; EC50 (NCI-H1299): 800 nM
18 | COc1cc2c(cc1OCc1cccnc1)Cc1c-2n[nH]c1-c1ccc(-c2ccc(O)cc2)cc1 | > 59300 | 
23 | CCc1ccc(CCOc2cc3c(cc2OC)-c2n[nH]c(-c4ccc(-c5ccc(O)cc5)cc4)c2C3)nc1 | 29400 | EC50 [2]: > 10000 nM; EC50 (NCI-H1299): 500 nM
0.1 | COc1cc2c(cc1OC[C@H](O)CO)Cc1c-2n[nH]c1-c1ccc(-c2ccc(O)cc2)cc1 | 7700 | EC50 [2]: > 50000 nM; EC50 (NCI-H1299): 200 nM
36 | COc1cc2c(cc1OCc1ccncc1)-c1[nH]nc(-c3ccc(-c4ccc(O)cc4)cc3)c1C2 |  | 
0.1 | COc1cc2c(cc1OC[C@@H](O)CO)Cc1c-2n[nH]c1-c1ccc(-c2ccc(O)cc2)cc1 | 3500 | 
